Results taken from the supplement of paper PMC10307832.

Key:
Assay in all cases: relative viability (nuclei count vs DMSO), 5 days (fraction); higher = more cells survive
[1] = test system: H3255
In short: (§1)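 Relative viability is defined as nuclei in treated wells over nuclei in vehicle wells. Duplicate plates were run and medians reported. Lung cancer cell lines in 1536-well plates were dosed by pin tool one day after seeding, with one drug or with a fixed anchor-drug dose plus five library-drug doses (not always all listed) in √10 steps, and nuclei were counted after 5 days.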

[2] = test system: PC-14
In short: as §1

[3] = test system: NCI-H727
In short: as §1

[4] = test system: NCI-H460
In short: as §1

[5] = test system: LCLC-103H
In short: as §1

[6] = test system: NCI-H1793
In short: as §1

[7] = test system: 201T
In short: as §1

[8] = test system: NCI-H2228
In short: as §1

[9] = test system: LU99A
In short: as §1

[10] = test system: SW 1573
In short: as §1

[11] = test system: A-427
In short: as §1

[12] = test system: NCI-H1650
In short: as §1

[13] = test system: NCI-H2347
In short: as §1

[14] = test system: LK-2
In short: as §1

[15] = test system: HCC-44
In short: as §1

[16] = test system: NCI-H23
In short: as §1

[17] = test system: SW 900
In short: as §1

[18] = test system: LC-2-ad
In short: as §1

[19] = test system: COR-L23
In short: as §1

[20] = test system: LCLC-97TM1
In short: as §1

**Q.** Which relative viability ([1]; first compound 0.04 µM) does the source give for `Cc1sc2c(c1C)C(c1ccc(Cl)cc1)=N[C@@H](CC(=O)OC(C)(C)C)c1nnc(C)n1-2` [JQ1] + CC(=O)c1c(C)c2cnc(Nc3ccc(N4CCNCC4)cn3)nc2n(C2CCCC2)c1=O [Palbociclib] (partner 0.5 µM) here?
**A.** Its relative viability is 0.303.

**Q.** And the relative viability ([1]; first compound 0.1265 µM)?
**A.** Its relative viability is 0.321.

**Q.** What about the relative viability ([1]; first compound 0.4 µM) of the same compound?
**A.** Its relative viability is 0.283.

**Q.** And the relative viability ([1]; first compound 1.265 µM)?
**A.** The relative viability was 0.247.

**Q.** What about the relative viability ([1]; first compound 4 µM) of the same compound?
**A.** The relative viability was 0.228.

**Q.** What about the relative viability ([2]; first compound 0.04 µM) of the same compound?
**A.** The relative viability was 0.486.

**Q.** What about the relative viability ([2]; first compound 0.1265 µM) of the same compound?
**A.** Its relative viability is 0.238.

**Q.** What about the relative viability ([2]; first compound 0.4 µM) of the same compound?
**A.** The relative viability was 0.221.

**Q.** And the relative viability ([2]; first compound 1.265 µM)?
**A.** Its relative viability is 0.116.

**Q.** And the relative viability ([2]; first compound 4 µM)?
**A.** Its relative viability is 0.104.

**Q.** And the relative viability ([3]; first compound 0.04 µM)?
**A.** Its relative viability is 0.63.

**Q.** And the relative viability ([3]; first compound 0.1265 µM)?
**A.** The relative viability was 0.576.

**Q.** What about the relative viability ([3]; first compound 0.4 µM) of the same compound?
**A.** Its relative viability is 0.61.

**Q.** What about the relative viability ([3]; first compound 1.265 µM) of the same compound?
**A.** Its relative viability is 0.538.

**Q.** And the relative viability ([3]; first compound 4 µM)?
**A.** Its relative viability is 0.581.

**Q.** What about the relative viability ([4]; first compound 0.04 µM) of the same compound?
**A.** The relative viability was 0.172.

**Q.** What about the relative viability ([4]; first compound 0.1265 µM) of the same compound?
**A.** The relative viability was 0.0585.

**Q.** And the relative viability ([4]; first compound 0.4 µM)?
**A.** The relative viability was 0.0456.

**Q.** And the relative viability ([4]; first compound 1.265 µM)?
**A.** Its relative viability is 0.0198.

**Q.** And the relative viability ([4]; first compound 4 µM)?
**A.** Its relative viability is 0.0263.

**Q.** And the relative viability ([5]; first compound 0.04 µM)?
**A.** Its relative viability is 0.46.

**Q.** And the relative viability ([5]; first compound 0.1265 µM)?
**A.** Its relative viability is 0.438.

**Q.** What about the relative viability ([5]; first compound 0.4 µM) of the same compound?
**A.** The relative viability was 0.42.

**Q.** And the relative viability ([5]; first compound 1.265 µM)?
**A.** The relative viability was 0.419.

**Q.** And the relative viability ([5]; first compound 4 µM)?
**A.** The relative viability was 0.328.

**Q.** And the relative viability ([6]; first compound 0.04 µM)?
**A.** Its relative viability is 0.331.

**Q.** What about the relative viability ([6]; first compound 0.1265 µM) of the same compound?
**A.** Its relative viability is 0.307.

**Q.** What about the relative viability ([6]; first compound 0.4 µM) of the same compound?
**A.** Its relative viability is 0.274.

**Q.** What about the relative viability ([6]; first compound 1.265 µM) of the same compound?
**A.** Its relative viability is 0.335.

**Q.** And the relative viability ([6]; first compound 4 µM)?
**A.** The relative viability was 0.334.

**Q.** And the relative viability ([7]; first compound 0.04 µM)?
**A.** The relative viability was 0.334.

**Q.** What about the relative viability ([7]; first compound 0.4 µM) of the same compound?
**A.** The relative viability was 0.298.

**Q.** And the relative viability ([7]; first compound 1.265 µM)?
**A.** The relative viability was 0.313.

**Q.** And the relative viability ([7]; first compound 4 µM)?
**A.** The relative viability was 0.268.

**Q.** What about the relative viability ([8]; first compound 0.04 µM) of the same compound?
**A.** The relative viability was 0.657.

**Q.** And the relative viability ([8]; first compound 0.1265 µM)?
**A.** The relative viability was 0.704.

**Q.** And the relative viability ([8]; first compound 0.4 µM)?
**A.** The relative viability was 0.641.

**Q.** What about the relative viability ([8]; first compound 1.265 µM) of the same compound?
**A.** Its relative viability is 0.293.

**Q.** What about the relative viability ([8]; first compound 4 µM) of the same compound?
**A.** The relative viability was 0.379.

**Q.** And the relative viability ([9]; first compound 0.04 µM)?
**A.** Its relative viability is 0.465.

**Q.** What about the relative viability ([9]; first compound 0.4 µM) of the same compound?
**A.** Its relative viability is 0.287.

**Q.** What about the relative viability ([9]; first compound 1.265 µM) of the same compound?
**A.** The relative viability was 0.185.

**Q.** And the relative viability ([9]; first compound 4 µM)?
**A.** Its relative viability is 0.176.

**Q.** And the relative viability ([10]; first compound 0.04 µM)?
**A.** The relative viability was 0.372.

**Q.** And the relative viability ([10]; first compound 0.1265 µM)?
**A.** The relative viability was 0.274.

**Q.** And the relative viability ([10]; first compound 0.4 µM)?
**A.** The relative viability was 0.202.

**Q.** What about the relative viability ([10]; first compound 1.265 µM) of the same compound?
**A.** The relative viability was 0.129.

**Q.** What about the relative viability ([10]; first compound 4 µM) of the same compound?
**A.** Its relative viability is 0.118.

**Q.** And the relative viability ([11]; first compound 0.04 µM)?
**A.** Its relative viability is 0.524.

**Q.** And the relative viability ([11]; first compound 0.1265 µM)?
**A.** Its relative viability is 0.493.

**Q.** And the relative viability ([11]; first compound 0.4 µM)?
**A.** Its relative viability is 0.457.

**Q.** And the relative viability ([11]; first compound 1.265 µM)?
**A.** Its relative viability is 0.445.

**Q.** And the relative viability ([11]; first compound 4 µM)?
**A.** The relative viability was 0.375.

**Q.** What about the relative viability ([12]; first compound 0.04 µM) of the same compound?
**A.** The relative viability was 0.322.

**Q.** What about the relative viability ([12]; first compound 0.1265 µM) of the same compound?
**A.** The relative viability was 0.264.

**Q.** And the relative viability ([12]; first compound 0.4 µM)?
**A.** The relative viability was 0.256.

**Q.** And the relative viability ([12]; first compound 1.265 µM)?
**A.** Its relative viability is 0.111.

**Q.** What about the relative viability ([12]; first compound 4 µM) of the same compound?
**A.** Its relative viability is 0.134.

**Q.** What about the relative viability ([13]; first compound 0.04 µM) of the same compound?
**A.** Its relative viability is 0.446.

**Q.** And the relative viability ([13]; first compound 0.1265 µM)?
**A.** Its relative viability is 0.393.

**Q.** What about the relative viability ([13]; first compound 0.4 µM) of the same compound?
**A.** The relative viability was 0.385.

**Q.** What about the relative viability ([13]; first compound 1.265 µM) of the same compound?
**A.** The relative viability was 0.327.

**Q.** And the relative viability ([13]; first compound 4 µM)?
**A.** The relative viability was 0.32.

**Q.** And the relative viability ([14]; first compound 0.04 µM)?
**A.** The relative viability was 0.718.

**Q.** And the relative viability ([14]; first compound 0.1265 µM)?
**A.** The relative viability was 0.702.

**Q.** And the relative viability ([14]; first compound 0.4 µM)?
**A.** Its relative viability is 0.339.

**Q.** And the relative viability ([14]; first compound 1.265 µM)?
**A.** The relative viability was 0.151.

**Q.** And the relative viability ([14]; first compound 4 µM)?
**A.** Its relative viability is 0.151.

**Q.** And the relative viability ([15]; first compound 0.04 µM)?
**A.** Its relative viability is 0.96.

**Q.** What about the relative viability ([15]; first compound 0.1265 µM) of the same compound?
**A.** The relative viability was 0.942.

**Q.** And the relative viability ([15]; first compound 0.4 µM)?
**A.** The relative viability was 1.11.

**Q.** What about the relative viability ([15]; first compound 1.265 µM) of the same compound?
**A.** The relative viability was 0.978.

**Q.** What about the relative viability ([15]; first compound 4 µM) of the same compound?
**A.** The relative viability was 0.728.

**Q.** What about the relative viability ([16]; first compound 0.04 µM) of the same compound?
**A.** Its relative viability is 0.597.

**Q.** And the relative viability ([16]; first compound 0.1265 µM)?
**A.** Its relative viability is 0.48.

**Q.** What about the relative viability ([16]; first compound 0.4 µM) of the same compound?
**A.** Its relative viability is 0.275.

**Q.** What about the relative viability ([16]; first compound 1.265 µM) of the same compound?
**A.** Its relative viability is 0.26.

**Q.** And the relative viability ([16]; first compound 4 µM)?
**A.** Its relative viability is 0.215.

**Q.** And the relative viability ([17]; first compound 0.04 µM)?
**A.** The relative viability was 0.506.

**Q.** And the relative viability ([17]; first compound 0.1265 µM)?
**A.** Its relative viability is 0.465.

**Q.** What about the relative viability ([17]; first compound 0.4 µM) of the same compound?
**A.** Its relative viability is 0.318.

**Q.** And the relative viability ([17]; first compound 1.265 µM)?
**A.** Its relative viability is 0.289.

**Q.** What about the relative viability ([17]; first compound 4 µM) of the same compound?
**A.** The relative viability was 0.222.

**Q.** What about the relative viability ([18]; first compound 0.04 µM) of the same compound?
**A.** Its relative viability is 0.514.

**Q.** What about the relative viability ([18]; first compound 0.1265 µM) of the same compound?
**A.** Its relative viability is 0.433.

**Q.** What about the relative viability ([18]; first compound 0.4 µM) of the same compound?
**A.** Its relative viability is 0.342.

**Q.** What about the relative viability ([18]; first compound 1.265 µM) of the same compound?
**A.** Its relative viability is 0.279.

**Q.** And the relative viability ([18]; first compound 4 µM)?
**A.** The relative viability was 0.281.

**Q.** And the relative viability ([19]; first compound 0.04 µM)?
**A.** The relative viability was 0.336.

**Q.** What about the relative viability ([19]; first compound 0.1265 µM) of the same compound?
**A.** Its relative viability is 0.193.

**Q.** And the relative viability ([19]; first compound 0.4 µM)?
**A.** Its relative viability is 0.25.

**Q.** What about the relative viability ([19]; first compound 1.265 µM) of the same compound?
**A.** The relative viability was 0.165.

**Q.** What about the relative viability ([19]; first compound 4 µM) of the same compound?
**A.** The relative viability was 0.162.

**Q.** What about the relative viability ([20]; first compound 0.04 µM) of the same compound?
**A.** The relative viability was 0.255.

**Q.** And the relative viability ([20]; first compound 0.1265 µM)?
**A.** The relative viability was 0.159.

**Q.** What about the relative viability ([20]; first compound 0.4 µM) of the same compound?
**A.** Its relative viability is 0.15.

**Q.** What about the relative viability ([20]; first compound 1.265 µM) of the same compound?
**A.** Its relative viability is 0.0928.

**Q.** What about the relative viability ([20]; first compound 4 µM) of the same compound?
**A.** The relative viability was 0.0931.
